Source: PubChem BioAssay AID222 (DTP/NCI, 2004)
Values joined by “and” are separate entries in the source; they are usually repeats but may differ in a detail not shown here. Equal entries are not always repeated. Inconclusive results and toxic doses are left out. Rule for the calls: active = survival T/C of 150% or more; inactive = T/C below 125% in these data.

Test system: C57BL/6 mice, intracerebral ependymoblastoma, median survival T/C
Test: NCI In Vivo Anticancer Drug Screen. Data for tumor model Ependymoblastoma (intracerebral) in C57BL/6 mice
Conditions: endpoint: median survival time, higher = longer survival
Protocol: The antitumor activity of compounds was measured in mice bearing transplantable tumors. Survival or tumor size were measured and the results are expressed as the measurement made in the treated group (T) divided by the measurement made in the vehicle treated control group (C). The tumor model used in this assay is Ependymoblastoma (intracerebral) in C57BL/6 mice

[1] = dose: 8.0 mg/kg/injection, schedule: Q01DX001 (ip), vehicle: Klucel (hydroxypropylcellulose) (HPC)
[2] = dose: 16.0 mg/kg/injection, schedule: Q01DX001 (ip), vehicle: Klucel (hydroxypropylcellulose) (HPC)

Measured: T/C

COc1cc(NS(C)(=O)=O)ccc1Nc1c2ccccc2nc2ccccc12
inactive: dose: 1.0 mg/kg/injection, schedule: Q01DX005 (ip), vehicle: Klucel (hydroxypropylcellulose) (HPC) 93 % of control and 108 % of control | dose: 1.0 mg/kg/injection, schedule: Q01DX005 (ip), vehicle: saline + alcohol 93 % of control and 108 % of control and 116 % of control | dose: 1.0 mg/kg/injection, schedule: Q01DX005 (ip), vehicle: water 89 % of control and 110 % of control | dose: 2.0 mg/kg/injection, schedule: Q01DX005 (ip), vehicle: Klucel (hydroxypropylcellulose) (HPC) 98 % of control and 104 % of control | dose: 2.0 mg/kg/injection, schedule: Q01DX005 (ip), vehicle: saline + alcohol 94 % of control and 109 % of control and 112 % of control | dose: 2.0 mg/kg/injection, schedule: Q01DX005 (ip), vehicle: water 105 % of control and 108 % of control | dose: 4.0 mg/kg/injection, schedule: Q01DX005 (ip), vehicle: Klucel (hydroxypropylcellulose) (HPC) 112 % of control | dose: 4.0 mg/kg/injection, schedule: Q01DX005 (ip), vehicle: saline + alcohol 90 % of control and 98 % of control | dose: 4.0 mg/kg/injection, schedule: Q01DX005 (ip), vehicle: water 103 % of control and 107 % of control | dose: 4.0 mg/kg/injection, schedule: Q#A X002 (ip), vehicle: Klucel (hydroxypropylcellulose) (HPC) 89 % of control and 105 % of control | [1] 90 % of control and 96 % of control and 106 % of control | dose: 8.0 mg/kg/injection, schedule: Q01DX005 (ip), vehicle: Klucel (hydroxypropylcellulose) (HPC) 116 % of control | dose: 8.0 mg/kg/injection, schedule: Q#A X002 (ip), vehicle: Klucel (hydroxypropylcellulose) (HPC) 91 % of control and 92 % of control | [2] 104 % of control (2×) and 107 % of control | dose: 16.0 mg/kg/injection, schedule: Q01DX001 (oral), vehicle: Klucel (hydroxypropylcellulose) (HPC) 99 % of control and 113 % of control | dose: 16.0 mg/kg/injection, schedule: Q#A X002 (ip), vehicle: Klucel (hydroxypropylcellulose) (HPC) 90 % of control | dose: 32.0 mg/kg/injection, schedule: Q01DX001 (ip), vehicle: Klucel (hydroxypropylcellulose) (HPC) 89 % of control and 101 % of control and 107 % of control | dose: 32.0 mg/kg/injection, schedule: Q01DX001 (oral), vehicle: Klucel (hydroxypropylcellulose) (HPC) 108 % of control | dose: 32.0 mg/kg/injection, schedule: Q#A X002 (ip), vehicle: Klucel (hydroxypropylcellulose) (HPC) 89 % of control and 93 % of control | dose: 64.0 mg/kg/injection, schedule: Q01DX001 (ip), vehicle: Klucel (hydroxypropylcellulose) (HPC) 91 % of control | dose: 64.0 mg/kg/injection, schedule: Q01DX001 (oral), vehicle: Klucel (hydroxypropylcellulose) (HPC) 94 % of control and 97 % of control | dose: 64.0 mg/kg/injection, schedule: Q#A X002 (ip), vehicle: Klucel (hydroxypropylcellulose) (HPC) 89 % of control and 91 % of control | dose: 128.0 mg/kg/injection, schedule: Q01DX001 (oral), vehicle: Klucel (hydroxypropylcellulose) (HPC) 90 % of control and 102 % of control | dose: 256.0 mg/kg/injection, schedule: Q01DX001 (oral), vehicle: Klucel (hydroxypropylcellulose) (HPC) 91 % of control

O=CC(NC(=O)N(CCCl)N=O)C(O)C(O)C(O)CO (centres undefined)
inactive: dose: 0.12 mg/kg/injection, schedule: Q01DX005 (ip), vehicle: Klucel (hydroxypropylcellulose) (HPC) 95 % of control | dose: 0.12 mg/kg/injection, schedule: Q01DX005 (ip), vehicle: saline 96 % of control and 104 % of control | dose: 0.13 mg/kg/injection, schedule: Q01DX005 (ip), vehicle: Klucel (hydroxypropylcellulose) (HPC) 88 % of control | dose: 0.13 mg/kg/injection, schedule: Q01DX005 (ip), vehicle: saline 89 % of control and 105 % of control | dose: 0.25 mg/kg/injection, schedule: Q01DX005 (ip), vehicle: Klucel (hydroxypropylcellulose) (HPC) 96 % of control and 123 % of control | dose: 0.5 mg/kg/injection, schedule: Q01DX005 (ip), vehicle: Klucel (hydroxypropylcellulose) (HPC) 97 % of control and 99 % of control | dose: 1.0 mg/kg/injection, schedule: Q01DX001 (ip), vehicle: Klucel (hydroxypropylcellulose) (HPC) 96 % of control | dose: 2.0 mg/kg/injection, schedule: Q01DX001 (ip), vehicle: Klucel (hydroxypropylcellulose) (HPC) 100 % of control | dose: 4.0 mg/kg/injection, schedule: Q01DX001 (ip), vehicle: Klucel (hydroxypropylcellulose) (HPC) 97 % of control | [1] 96 % of control | [2] 114 % of control | dose: 32.0 mg/kg/injection, schedule: Q01DX005 (oral), vehicle: saline 108 % of control | dose: 64.0 mg/kg/injection, schedule: Q01DX001 (oral), vehicle: saline 89 % of control | dose: 64.0 mg/kg/injection, schedule: Q01DX005 (oral), vehicle: saline 89 % of control | dose: 128.0 mg/kg/injection, schedule: Q01DX001 (oral), vehicle: saline 98 % of control | dose: 256.0 mg/kg/injection, schedule: Q01DX001 (oral), vehicle: saline 99 % of control | dose: 512.0 mg/kg/injection, schedule: Q01DX001 (oral), vehicle: saline 95 % of control | dose: 1024.0 mg/kg/injection, schedule: Q01DX001 (oral), vehicle: saline 99 % of control

CC(=O)CC(c1ccccc1)c1c(O)c2ccccc2oc1=O (centres undefined)
inactive: dose: 0.09 mg/kg/injection, schedule: Q01DX005 (ip), vehicle: saline 93 % of control | dose: 0.18 mg/kg/injection, schedule: Q01DX005 (ip), vehicle: saline 115 % of control | dose: 0.36 mg/kg/injection, schedule: Q01DX005 (ip), vehicle: saline 98 % of control | dose: 1.44 mg/kg/injection, schedule: Q01DX005 (ip), vehicle: saline 87 % of control

Cc1c[nH]c(=O)[nH]c1=O
inactive: dose: 32.0 mg/kg/injection, schedule: Q01DX005 (ip), vehicle: Klucel (hydroxypropylcellulose) (HPC) 99 % of control | dose: 64.0 mg/kg/injection, schedule: Q01DX005 (ip), vehicle: saline with Tween-80 97 % of control | dose: 128.0 mg/kg/injection, schedule: Q01DX005 (ip), vehicle: Klucel (hydroxypropylcellulose) (HPC) 97 % of control | dose: 128.0 mg/kg/injection, schedule: Q01DX005 (ip), vehicle: saline with Tween-80 102 % of control | dose: 256.0 mg/kg/injection, schedule: Q01DX005 (ip), vehicle: Klucel (hydroxypropylcellulose) (HPC) 95 % of control | dose: 256.0 mg/kg/injection, schedule: Q01DX005 (ip), vehicle: saline with Tween-80 97 % of control | dose: 512.0 mg/kg/injection, schedule: Q01DX005 (ip), vehicle: Klucel (hydroxypropylcellulose) (HPC) 106 % of control | dose: 512.0 mg/kg/injection, schedule: Q01DX005 (ip), vehicle: saline with Tween-80 88 % of control | dose: 1024.0 mg/kg/injection, schedule: Q01DX005 (ip), vehicle: saline with Tween-80 107 % of control

[N-]=[N+]=CC(=O)CCC(N)C(=O)O (centres undefined)
inactive: dose: 0.05 mg/kg/injection, schedule: Q01DX005 (ip), vehicle: saline 101 % of control | dose: 0.1 mg/kg/injection, schedule: Q01DX005 (ip), vehicle: saline 115 % of control | dose: 0.2 mg/kg/injection, schedule: Q01DX005 (ip), vehicle: saline 106 % of control | dose: 0.8 mg/kg/injection, schedule: Q01DX005 (ip), vehicle: saline 121 % of control

O=C1c2c(O)ccc(O)c2C(=O)c2c(NCCNCCO)ccc(NCCNCCO)c21
inactive: dose: 1.0 mg/kg/injection, schedule: Q01DX005 (ip), vehicle: saline with Tween-80 102 % of control | dose: 2.0 mg/kg/injection, schedule: Q01DX005 (ip), vehicle: saline with Tween-80 96 % of control | dose: 4.0 mg/kg/injection, schedule: Q01DX005 (ip), vehicle: saline with Tween-80 106 % of control

O=c1ccn(C2OC(CO)C(O)C2O)c(=O)[nH]1 (centres undefined)
inactive: dose: 64.0 mg/kg/injection, schedule: Q01DX005 (ip), vehicle: saline 93 % of control | dose: 128.0 mg/kg/injection, schedule: Q01DX005 (ip), vehicle: saline 89 % of control and 100 % of control | dose: 256.0 mg/kg/injection, schedule: Q01DX005 (ip), vehicle: saline 102 % of control and 109 % of control | dose: 512.0 mg/kg/injection, schedule: Q01DX005 (ip), vehicle: saline 96 % of control and 108 % of control

ClC(Cl)=C(Cl)Cl
inactive: dose: 22.0 mg/kg/injection, schedule: Q01DX005 (ip), vehicle: saline with Tween-80 111 % of control | dose: 45.0 mg/kg/injection, schedule: Q01DX005 (ip), vehicle: saline with Tween-80 90 % of control | dose: 90.0 mg/kg/injection, schedule: Q01DX005 (ip), vehicle: saline with Tween-80 88 % of control and 92 % of control
